The EC50 is the concentration giving half of the maximal effect. Read a high EC50 as a less potent agent.

The record followed here is patent US8748434B2 (Hoffman-La Roche Inc., priority 2012, dated 2014).

The structures appear in SMILES notation.

The experiment addresses T1, human GPBAR1 receptor (Homo sapiens, UniProt Q8TDU6).
T1 construct: expressed in transfected cells
T1 sequence (Q8TDU6 1-330): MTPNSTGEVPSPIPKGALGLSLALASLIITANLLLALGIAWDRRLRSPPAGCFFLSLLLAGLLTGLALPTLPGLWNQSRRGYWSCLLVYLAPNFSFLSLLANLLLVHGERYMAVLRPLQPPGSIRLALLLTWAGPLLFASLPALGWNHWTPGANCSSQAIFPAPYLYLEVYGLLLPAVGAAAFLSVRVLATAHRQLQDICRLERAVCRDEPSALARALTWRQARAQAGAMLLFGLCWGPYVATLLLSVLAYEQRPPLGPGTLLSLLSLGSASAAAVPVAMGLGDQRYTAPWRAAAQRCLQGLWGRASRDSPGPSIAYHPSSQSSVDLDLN
The experiment can be described thus: functional cAMP assay in CHO-dhfr(minus) cells expressing human GPBAR1 receptors. Type of experiment: cell-based. As to conditions: CHO-dhfr(minus) cells expressing human GPBAR1, compounds incubated 30 min at 30° C. The text has this: The cDNA of the human GPBAR1 receptor (Genbank: NM 170699 with the exception of a silent C:G mutation at position 339 from the start codon) was amplified by polymerase chain reaction (PCR) from human cDNA and inserted into pCineo (Promega) by standard methods (Current Protocols in Molecular Biology, Wiley Press, ed. Ausubel et al.). The final clone was verified by DNA sequence analysis. The plasmid was transfected into CHO cells deficient in dihydrofolate reductase activity (CHO-dhfr−) using Lipofectamine plus (Invitrogen). Clones were isolated in limited dilution conditions and identified by activities in the cAMP assay using lithocholic acid as agonist. A clonal cell line displaying the greatest activity in cAMP increases was selected and identified as giving consistently good responses for up to at least 20 passages.
CHO-dhfr(minus) cells expressing human GPBAR1 receptors are seeded 17-24 hours prior to the experiment 50.000 cells per well in a black 96 well plate with flat clear bottom (Corning Costar #3904) in DMEM (Invitrogen No. 31331), 1×HT supplement, with 10% fetal calf serum and incubated at 5% CO2 and 37° C. in a humidified incubator. The growth medium was exchanged with Krebs Ringer Bicarbonate buffer with 1 mM IBMX and incubated at 30° C. for 30 min. Compounds were added to a final assay volume of 100 μl and incubated for 30 min at 30° C. The assay was stopped by the addition of 50 μl lysis reagent (Tris, NaCl, 1.5% Triton X100, 2.5% NP40, 10% NaN3) and 50 μl detection solutions (20 μM mAb Alexa700-cAMP 1:1, and 48 μM Ruthenium-2-AHA-cAMP) and shaked for 2 h at room temperature. The time-resolved energy transfer is measured by a TRF reader (Evotec Technologies GmbH, Hamburg Germany), equipped with a ND:YAG laser as excitation source. The plate is measured twice with the excitation at 355 nm and at the emission with a delay of 100 ns and a gate of 100 ns, total exposure time 10 s at 730 (bandwidth 30 nm) or 645 nm (bandwidth 75 nm), respectively. The measured signal at 730 nm has to be corrected for the ruthenium background, the direct excitation of Alexa and the buffer control. The FRET signal is calculated as follows: FRET=T730−Alexa730−P(T645−B645) with P=R^u730−B730/Ru645−B645, where T730 is the test well measured at […], T645 is the test well measured at 645 nm, B730 and B645 are the buffer controls at 730 nm and 645 nm, respectively. cAMP content is determined from the function of a standard curve spanning from 10 μM to 0.13 nM cAMP.
EC50 values were determined using Activity Base analysis (ID Business Solution, Limited). The EC50 values for a wide range of bile acids generated from this assay were in agreement with the values published in the scientific literature. Specificity for GPBAR1 was tested in non-transfected CHO cells in the same assay as above.

In turn, `COc1cc(F)ccc1-c1cc(Cl)nnc1N(C)C(=O)c1cc(C(F)(F)F)cc(S(C)(=O)=O)c1` [Example 1, N-[6-Chloro-4-(4-fluoro-2-methoxy-phenyl)-pyridazin-3-yl]-3-methanesulfonyl-N-methyl-5-trifluoromethyl-benzamide] registered an EC50 of 165 nM.

The compound `COc1cc(F)ccc1-c1ccnnc1N(C)C(=O)c1cc(C(F)(F)F)cc(S(C)(=O)=O)c1` [Example 2, N-[4-(4-Fluoro-2-methoxy-phenyl)-pyridazin-3-yl]-3-methanesulfonyl-N-methyl-5-trifluoromethyl-benzamide] displayed an EC50 of 75 nM.

The compound `COc1cc(F)ccc1-c1cc(C)nnc1N(C)C(=O)c1cc(C(F)(F)F)cc(S(C)(=O)=O)c1` [Example 3, N-[4-(4-Fluoro-2-methoxy-phenyl)-6-methyl-pyridazin-3-yl]-3-methanesulfonyl-N-methyl-5-trifluoromethyl-benzamide] came in with a concentration for a half-maximal effect (EC50) of 178 nM. Consider `Cc1ccccc1-c1cc(Cl)nnc1N(C)C(=O)c1cc(C(F)(F)F)cc(S(C)(=O)=O)c1` [Example 4, N-(6-Chloro-4-o-tolyl-pyridazin-3-yl)-3-methanesulfonyl-N-methyl-5-trifluoromethyl-benzamide], for which the concentration giving a half-maximal response (EC50) came out at 2180 nM. As for `CN(C(=O)c1cc(C(F)(F)F)cc(S(C)(=O)=O)c1)c1nnc(Cl)cc1-c1ccccc1` [Example 5, N-(6-Chloro-4-phenyl-pyridazin-3-yl)-3-methanesulfonyl-N-methyl-5-trifluoromethyl-benzamide], it took 2690 nM to reach a half-maximal effect (EC50). Then `CN(C(=O)c1cc(C(F)(F)F)cc(S(=O)(=O)N2CCOCC2)c1)c1nnc(Cl)cc1-c1ccccc1` [Example 6], with 427 nM; and `CN(C(=O)c1cc(C(F)(F)F)cc(C(F)(F)F)c1)c1nnc(Cl)cc1-c1ccccc1` [Example 7, N-(6-Chloro-4-phenyl-pyridazin-3-yl)-N-methyl-3,5-bis-trifluoromethyl-benzamide], with 299 nM. In the case of `COc1ncccc1-c1cc(Cl)nnc1N(C)C(=O)c1cc(C(F)(F)F)cc(S(C)(=O)=O)c1` [Example 8, N-[6-Chloro-4-(2-methoxy-pyridin-3-yl)-pyridazin-3-yl]-3-methanesulfonyl-N-methyl-5-trifluoromethyl-benzamide] it was 1520 nM.

`Cc1ccccc1-c1cc(Cl)nnc1N(C)C(=O)c1cc(C(F)(F)F)cc(S(=O)(=O)CCCC(=O)O)c1` [Example 10, 4-{3-[(6-Chloro-4-o-tolyl-pyridazin-3-yl)-methyl-carbamoyl]-5-trifluoromethyl-benzenesulfonyl}-butyric acid] returned a half-maximal effective concentration (EC50) of 8180 nM. Then `CN(C(=O)c1cc(C(F)(F)F)cc(S(C)(=O)=O)c1)c1nnc(Cl)cc1-c1cccnc1OCC(F)(F)F` [Example 11, N-{6-Chloro-4-[2-(2,2,2-trifluoro-ethoxy)-pyridin-3-yl]-pyridazin-3-yl}-3-methanesulfonyl-N-methyl-5-trifluoromethyl-benzamide], with 2390 nM; and `CN(C(=O)c1cc(C(F)(F)F)cc(S(C)(=O)=O)c1)c1nnccc1-c1cccnc1OCC(F)(F)F` [Example 12, 3-Methanesulfonyl-N-methyl-N-{4-[2-(2,2,2-trifluoro-ethoxy)-pyridin-3-yl]-pyridazin-3-yl}-5-trifluoromethyl-benzamide], with 160 nM; and `Cc1cc(-c2cccnc2OCC(F)(F)F)c(N(C)C(=O)c2cc(C(F)(F)F)cc(S(C)(=O)=O)c2)nn1` [Example 13, 3-Methanesulfonyl-N-methyl-N-{6-methyl-4-[2-(2,2,2-trifluoro-ethoxy)-pyridin-3-yl]-pyridazin-3-yl}-5-trifluoromethyl-benzamide], with 3910 nM. Then `COc1cc(F)ccc1-c1cnncc1N(C)C(=O)c1cc(C(F)(F)F)cc(S(C)(=O)=O)c1` [Example 14, N-[5-(4-Fluoro-2-methoxy-phenyl)-pyridazin-4-yl]-3-methanesulfonyl-N-methyl-5-trifluoromethyl-benzamide], with 230 nM; and `Cc1ccccc1-c1cnncc1N(C)C(=O)c1cc(C(F)(F)F)cc(S(C)(=O)=O)c1` [Example 15, 3-Methanesulfonyl-N-methyl-N-(5-o-tolyl-pyridazin-4-yl)-5-trifluoromethyl-benzamide], with 429 nM; and `Cc1ccccc1-c1cnncc1N(C)C(=O)c1cc(Cl)cc(S(C)(=O)=O)c1` [Example 16, 3-Chloro-5-methanesulfonyl-N-methyl-N-(5-o-tolyl-pyridazin-4-yl)-benzamide], with 663 nM. Then `Cc1ccccc1-c1cnncc1N(C)C(=O)c1cc(C(F)(F)F)cc(S(=O)(=O)CCCC(=O)OC(C)(C)C)c1` [Example 17, 4-{3-[Methyl-(5-o-tolyl-pyridazin-4-yl)-carbamoyl]-5-trifluoromethyl-benzenesulfonyl}-butyric acid tert-butyl ester], with 775 nM; and `Cc1ccccc1-c1cnncc1N(C)C(=O)c1cc(C(F)(F)F)cc(S(=O)(=O)CCCC(=O)O)c1` [Example 18, 4-{3-[Methyl-(5-o-tolyl-pyridazin-4-yl)-carbamoyl]-5-trifluoromethyl-benzenesulfonyl}-butyric acid], with more than 10000 nM. `Cc1ccccc1-c1ncncc1N(C)C(=O)c1cc(C(F)(F)F)cc(C(F)(F)F)c1` [Example 19, N-Methyl-N-(4-o-tolyl-pyrimidin-5-yl)-3,5-bis-trifluoromethyl-benzamide]: the 50% effective concentration (EC50) turned out to be 1480 nM.
